Experiments:
human lung cancer cells [1] = assay: Colony formation test in combination with radiation; assay type: cell-based; details: for sensitizer enhancement ratio (SER): in combination with radiation
Protocol: (§1) Colony formation tests were carried out in human lung cancer cells, breast cancer cells, and uterine cervical cancer cells as follows:
(§2) Respective sphingosine, phytosphingosine, C6PS, and C8PS were dissolved ethanol to produce specimens. About 600 cells (for each cancer) were plated in a dish with a diameter of 60 mm and incubated in a CO2 incubator at 37° C. for a day. Then, the cancer cells were treated with the specimens in combination with radiation and were continuously cultured. When suitable colonies were formed, the cancer cells were fixed with a fixing solution (methanol/acetic acid=3:1) and stained with trypan blue. Then, the number of the colonies was counted and the results were evaluated in a comparative manner.

human lung cancer cells [2] = assay: Apoptosis test with or without radiation (4 Gy); assay type: cell-based; details: 20 μg/ml, FIG. 13
Protocol: (§3) (1) Each 5 ml of 20 μg/ml of phytosphingosine and derivatives thereof were added to human lung cancer cell-containing dishes. Some cells were cultured without radiation and others were cultured with radiation with dose of 4 Gy. This apoptosis test was carried out in the same manner in the Experiment 1. Specimens used in this apoptosis test are as follows:
(§4) Control (Cont), IR, PS, PS+IR, C4PS, C4PS+IR, C6PS, C6PS+IR, C8PS, C8PS+IR, C12PS, C12PS+IR.

human lung cancer cells [3] = assay: DAPI staining (percentage of apoptotic cells); assay type: cell-based; details: 20 μg/ml C8PS with radiation
Protocol: (§5) Human lung cancer cells were cultured in the same manner as in Experiment 1 and injected with 5 ml of 20 μg/ml of C8PS. Then, the DAPI staining and DNA fragmentation were carried out.
DAPI staining protocol was as follows:
First, a control cell group, a radiation-treated cell group, a C8PS-treated cell group, and a C8PS and radiation concurrent treated cell group were fixed with 4% paraformaldehyde at room temperature for 30 minutes and washed with PBS. 50 ng/ml of a DAPI solution was added to the fixed cell groups and incubated for 30 minutes. Then, the cell groups were again washed with PBS and examined with a fluorescent microscope. Cellular apoptosis is characterized by condensation and fragmentation of cell nuclei. Based on this fact, apoptotic cells were counted in each group. Then, the number of apoptotic cells was divided by the number of total cells to derive the percentage of apoptotic cells in each group.

human lung cancer cells [4] = assay: DNA fragmentation (agarose gel electrophoresis); assay type: cell-based; details: 20 μg/ml C8PS with radiation, FIG. 20
Protocol: as §5
DNA fragmentation was carried out as follows:
C8PS-treated human lung cancer cells were dissolved in a lysis buffer (20 mM Tris/HCl, pH 8.0, 0.1 mM EDTA, 1% SDS and 0.5 mg/ml proteinase K) and treated with a mixture of phenol, chloroform, and isoamylalcohol (phenol/chloroform/isoamylalcohol=25:24:1) to thereby give a chromosomal DNA extract. The chromosomal DNA extract was subjected to 1% agarose gel electrophoresis and the resulting DNA fragments were visualized under an UV light.

human lung cancer cells [5] = assay: In vivo animal test, tumor volume with radiotherapy (20 Gy); parameters: species or system nude mice
Protocol: (§6) Nude mice (body weight: about 20 g) were randomized into 4 groups and the femoral region of the nude mice transplanted with human lung cancer cells. Then, tumor volume was allowed to reach a level of […]. One group had untreated cells as a control and a second group had radiation (dose of 20 Gy)-treated cells. A third group was orally administered with 50 mg/kg of an olive oil for one week on a daily basis, followed by radiotherapy (dose of 20 Gy). A fourth group was orally administered with a 50 mg/kg solution of phytosphingosine in an olive oil for one week on a daily basis, followed by radiotherapy (dose of 20 Gy). Tumor volume was measured at intervals of 3 days for 40 days. […] In case of a C8PS alone treated group, the tumor size increased until 10 days after the treatment. […] Meanwhile, tumor growth was suspended at a certain point of time after C8PS alone treatment. It can be seen from this fact that C8PS is useful by itself as an anticancer agent for inhibiting tumor growth.

[6] = test system: human lung cancer cells (NCI-H460); assay: Apoptosis test (Sub G1, propidium iodide, flow cytometry); assay type: cell-based; details: 5 μg/ml, culture time of 48 hours, FIG. 2
Protocol: Cancer cells as used in the experiment were human lung cancer cells (NCI-H460, Korean Cell Line Bank), human breast cancer cells (MDA-MB-231, American Type Culture Collection (ATCC)), human uterine cervical cancer cells (HeLa, Korean Cell Line Bank), and blood cancer cells (Jurkat, ATCC). These cancer cells were cultured in RPMI 1640 media containing 10% FBS, penicillin, and streptomycin (GIBCO BRL).
The apoptosis tests were carried out at human lung cancer cells, breast cancer cells, uterine cervical cancer cells, and blood cancer cells as follows:
Phytosphingosine or a derivative thereof was dissolved in DMSO. Samples of the resultant solution of different concentration levels (1, 2, 5, 10, 15, 20 μg/ml) were prepared. According to the following treatment schedule, phytosphingosine treated cancer cells were cultured, washed with PBS (phosphate buffered saline), and fixed with 70% ethanol. The fixed cells were again washed with PBS, suspended in PBS, and 1 mg/ml of RNase was added thereto. Then, DNA was stained with 50 μg/ml of propidium iodide fluorescent dye and the change in the Sub G1 was analyzed by flow cytometry (Becton DICKINSON). The Sub G1, a marker of apoptotic cell death, means DNA distribution lower than that in the G1 phase of cell cycle.
(1-1) In order to determine an anticancer effect of phytosphingosine, 5 ml of 10 μg/ml of phytosphingosine was added to respective dishes containing lung cancer cells, breast cancer cells, uterine cervical cancer cells, and blood cancer cells.
(1-2) In order to examine a correlation of an anticancer effect with the phytosphingosine concentration and post-treatment culture time, each 5 ml of 2, 5, 10, and 15 μg/ml of phytosphingosine was added to respective human uterine cervical cancer cell-containing dishes and human breast cancer cell-containing dishes. In addition, each 5 ml of 5, 10, 15, and 20 μg/ml of phytosphingosine was added to respective human lung cancer cell-containing dishes, and each 5 ml of 1, 5, 10, and 20 μg/ml of phytosphingosine was added to respective human blood cancer cell-containing dishes.
(1-3) An anticancer effect of phytosphingosine derivatives was determined in the same manner as mentioned in (1-1) and (1-2) except using 5 μg/ml of C4PS, C6PS, C8PS, and C12PS.

[7] = test system: human breast cancer cells; assay: Apoptosis test with or without radiation; assay type: cell-based; details: 5 μg/ml in combination with radiation, FIG. 17
Protocol: as §3, §4
(§7) (2) Apoptosis tests for human blood cancer cells, uterine cervical cancer cells, and breast cancer cells were carried out in the same manner as in the above (1) except using 5 μg/ml of phytosphingosine and derivatives thereof.

[8] = test system: human uterine cervical cancer cells; assay: Apoptosis test with or without radiation; assay type: cell-based; details: 5 μg/ml in combination with radiation, FIG. 17
Protocol: as §3, §4, §7

[9] = test system: human uterine cervical cancer cells; assay: In vivo animal test, tumor size with radiotherapy; parameters: species or system nude mice; details: for tumor size, compound alone treated group: after 7 days (rapidly increased until 7 days after the treatment); for tumor size, radiation and compound concurrent treated group: as a function of days; for tumor size, concurrent treatment vs radiation or compound alone: with radiation, FIGS. 24 and 25
Protocol: as §6
The animal tests were carried out using nude mice of which the femoral regions were transplanted with human uterine cervical cancer cells in the same manner as the aforementioned animal test using C8PS.

[10] = test system: human breast cancer cells; assay: Colony formation test in combination with radiation; assay type: cell-based; details: FIG. 18
Protocol: as §1, §2

[11] = test system: human uterine cervical cancer cells; assay: as above; assay type: cell-based; details: FIG. 18
Protocol: as §1, §2

Row | Structure (SMILES) | radiosensitivity (human lung cancer cells [1]; FIG. 12) | increase of radiosensitivity relative to Taxol (human lung cancer cells [1]; at LD50 of human lung cancer cells, FIG. 14B) | sensitizer enhancement ratio (SER) (human lung cancer cells [1]; FIG. 12) | increase of apoptotic rate, concurrent treatment vs radiation alone (human lung cancer cells [1]; radiation at LD50 (number of colonies reduced to 50% by radiation alone), FIG. 14A) | apoptotic effect of concurrent application with radiation (human lung cancer cells [2]) | apoptotic rate, concurrent treatment vs radiation or C8PS alone (human lung cancer cells [3]; FIG. 19) | increase of apoptotic rate, concurrent treatment vs radiation or C8PS alone (human lung cancer cells [3]; as a function of time, FIG. 21) | chromosomal DNA fragmentation, concurrent treatment vs radiation or C8PS alone (human lung cancer cells [4]) | tumor volume, concurrent treatment vs radiation or C8PS alone (human lung cancer cells [5]; 50 mg/kg oral daily for one week then radiotherapy 20 Gy, FIG. 22) | size of initial tumor, radiation and C8PS concurrent treated group (human lung cancer cells [5]; 50 mg/kg oral daily for one week then radiotherapy 20 Gy, FIG. 23) | tumor size, C8PS alone treated group (human lung cancer cells [5]; after the 10th day after treatment (increased until 10 days), FIG. 23) | apoptotic rate [6] | enhancement of radiosensitizing effect [7] | enhancement of radiosensitizing effect [8] | tumor size, compound alone treated group [9] | tumor size, radiation and compound concurrent treated group [9] | tumor size, concurrent treatment vs radiation or compound alone [9] | sensitizer enhancement ratio (SER) [10] | sensitizer enhancement ratio (SER) [11]
1 | CCCCCCCCCCCCCC[C@@H](O)[C@@H](O)[C@H](CO)NC(=O)CCCCCCC [C8PS, N-octanoyl phytosphingosine] | excellent radiosensitivity | ≥ 20% | 2 | about 30% | excellent apoptotic effect | higher apoptotic rate | ≥ 20% | remarkably increased | significantly reduced | maintained or reduced | showed little changed | – | – | – | – | – | – | – | –
2 | CCCCCCCCCCCCCC[C@@H](O)[C@@H](O)[C@H](CO)NC(=O)CCC [C4PS, N-butanoyl phytosphingosine] | – | – | – | – | – | – | – | – | – | – | – | ~100% | excellent | excellent | slowly increased | showed little changes | significant reduction in tumor size | – | –
3 | CCCCCCCCCCCCC/C=C/[C@@H](O)[C@@H](N)CO [sphingosine] | – | – | 1.10 | – | – | – | – | – | – | – | – | – | – | – | – | – | – | – | –
4 | CCCCCCCCCCCCCC[C@@H](O)[C@@H](O)[C@H](CO)NC(=O)CCCCC [C6PS, N-hexanoyl phytosphingosine] | – | – | 1.6 | – | – | – | – | – | – | – | – | ~100% | excellent | excellent | slowly increased | showed little changes | significant reduction in tumor size | 2.40 | 2.67

Source: US20090176888A1, “COMPOSITION COMPRISING PHYTOSPHINGOSINE OR DERIVATIVE THEREOF” (KOREA INSTITUTE OF RADIOLOGICAL & MEDICAL SCIENCES, priority 2003, published 2009)
